In patent US20130040933A1, “AZAINDOLES AS JANUS KINASE INHIBITORS” (priority 2010, published 2013):

biological target: T1, rhJAK3 (Homo sapiens, UniProt P52333); experiment: JAK Biochemical HTRF Assay (JAK3); conditions: recombinant purified GST-tagged catalytic domain, HTRF format, [ATP] 1.7 μM; read-out: JAK3 IC50
T1 construct: recombinant purified GST-tagged catalytic domain for each enzyme; purchased Invitrogen PV3855
T1 sequence (P52333 822-1111 limits assumed): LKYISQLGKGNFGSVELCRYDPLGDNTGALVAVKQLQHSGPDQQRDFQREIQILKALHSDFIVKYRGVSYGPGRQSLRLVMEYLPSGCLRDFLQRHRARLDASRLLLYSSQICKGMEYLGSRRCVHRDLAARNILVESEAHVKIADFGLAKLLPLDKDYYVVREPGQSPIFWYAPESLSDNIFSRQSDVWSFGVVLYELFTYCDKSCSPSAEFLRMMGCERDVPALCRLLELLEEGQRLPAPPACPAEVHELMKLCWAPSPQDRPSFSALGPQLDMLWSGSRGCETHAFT

IC50, ≤ 1 nM:
C[C@@H](Nc1cncc(-c2c[nH]c3ncc(-c4cccc(CN5CCOCC5)c4)cc23)n1)C(=O)NCC(F)(F)F [Example 15-12, N^2-(6-{5-[3-(morpholin-4-yl-methyl)phenyl]-1H-pyrrolo[2,3-b]-pyridin-3-yl}pyrazin-2-yl)-N-(2,2,2-trifluoroethyl)-D-alaninamide]
C[C@@H](Nc1cncc(-c2c[nH]c3ncc(C4=CCOCC4)cc23)n1)C(=O)NCC(F)(F)F [Example 15-15, N^2-{6-[5-(3,6-dihydro-2H-pyran-4-yl)-1H-pyrrolo[2,3-b]pyridin-3-yl]pyrazin-2-yl}-N-(2,2,2-trifluoroethyl)-D-alaninamide]
C[C@@H](Nc1cncc(-c2c[nH]c3ncc(C4=CCCOC4)cc23)n1)C(=O)NCC(F)(F)F [Example 15-16, N^2-{6-[5-(5,6-dihydro-2H-pyran-3-yl)-1H-pyrrolo[2,3-b]pyridin-3-yl]pyrazin-2-yl}-N-(2,2,2-trifluoroethyl)-D-alaninamide]
C[C@@H](Nc1cncc(-c2c[nH]c3ncc(-c4ccc(N5CCCC5)cc4)cc23)n1)C(=O)NCC(F)(F)F [Example 15-17, N^2-{6-[5-(4-pyrrolidin-1-ylphenyl)-1H-pyrrolo[2,3-b]pyridin-3-yl]pyrazin-2-yl}-N-(2,2,2-trifluoroethyl)-D-alaninamide]
COc1cncc(-c2cnc3[nH]cc(-c4cncc(N[C@H](C)C(=O)NCC(F)(F)F)n4)c3c2)c1 [Example 15-18, N^2-{6-[5-(5-methoxypyridin-3-yl)-1H-pyrrolo[2,3-b]pyridin-3-yl]pyrazin-2-yl}-N-(2,2,2-trifluoroethyl)-D-alaninamide]
C[C@@H](Nc1cncc(-c2c[nH]c3ncc(-c4cncc(C#N)c4)cc23)n1)C(=O)NCC(F)(F)F [Example 15-19, N^2-{6-[5-(5-cyanopyridin-3-yl)-1H-pyrrolo[2,3-b]pyridin-3-yl]pyrazin-2-yl}-N-(2,2,2-trifluoroethyl)-D-alaninamide]
C[C@@H](Nc1cncc(-c2c[nH]c3ncc(-c4cccnc4F)cc23)n1)C(=O)NCC(F)(F)F [Example 15-20, N^2-{6-[5-(2-fluoropyridin-3-yl)-1H-pyrrolo[2,3-b]pyridin-3-yl)pyrazin-2-yl}-N-(2,2,2-trifluoroethyl)-D-alaninamide]
CC(C)(Nc1cncc(-c2c[nH]c3ncc(C4CC4)cc23)n1)C(=O)NCC(F)(F)F [Example 15-21, N2-[6-(5-cyclopropyl-1H-pyrrolo[2,3-b]pyridin-3-yl)pyrazin-2-yl]-2-methyl-N-(2,2,2-trifluoroethyl)alaninamide]
CC(C)[C@@H](Nc1cncc(-c2c[nH]c3ncc(C#N)cc23)n1)C(=O)NCC(F)(F)F [Example 16-2, N^2-[6-(5-cyano-1H-pyrrolo[2,3-b]pyridin-3-yl)pyrazin-2-yl]-N-(2,2,2-trifluoroethyl)-D-valinamide]

IC50, 10 to 100 nM:
C[C@@H](Nc1cncc(-c2c[nH]c3ncc(-c4ccccc4OC(F)(F)F)cc23)n1)C(=O)NCC(F)(F)F [Example 15-14, N-(2,2,2-trifluoroethyl)-N^2-(6-{5-[2-(trifluoromethoxy)phenyl]-1H-pyrrolo[2,3-b]pyridin-3-yl}pyrazin-2-yl)-D-alaninamide]

IC50, 1 to 10 nM:
C[C@@H](Nc1cncc(-c2c[nH]c3ncc(-c4ccccc4CN(C)C)cc23)n1)C(=O)NCC(F)(F)F [Example 15-13, N^2-[6-(5-{2-[(dimethylamino)methyl]-phenyl}-1H-pyrrolo(2,3-b]pyridin-3-yl)pyrazin-2-yl]-N-(2,2,2-trifluoroethyl)-D-alaninamide]
CC(C)[C@@H](Nc1cncc(-c2c[nH]c3ncc(F)cc23)n1)C(=O)NCC(F)(F)F [Example 16-1, N^2-[6-(5-fluoro-1H-pyrrolo[2,3-b]pyridin-3-yl)pyrazin-2-yl]-N-(2,2,2-trifluoroethyl)-D-valinamide]
